In patent US20200062705A1, “NOVEL CRYSTALLINE FORMS” (Biogen MA Inc., priority 2017, published 2020):

Legend:
Format in all cases: physicochemical
[1] = Powder bulk density analysis (ring shear tester); conditions: for Initial Density: initial bulk density, corresponds to x = 0 in FIG. 21, mass of powder normalized by volume of the cell; for Density results (Table 21 and FIG. 21) compared with the product of Route D (E12): initial density and density at varying stresses, higher density = more ideal packing
Description: Solid forms prepared according to the procedures described for Routes D, E, and F (Examples 12-14, respectively) were subjected to powder bulk density analysis in accordance with the following procedure.
A ring shear tester (RST-XS.s, Dietmar Schulze, Wolfenbüttel, Germany) with RST CONTROL 95 software was used for the bulk density analysis. For this analysis, Low-Stress Shear Cell, XS-Lr0, bottom ring was over-filled with small portions of powder using a spatula. The excess powder was removed by gently scraping off the powder with the spatula until the powder was flush with the top of the ring. The bottom ring was weighed and the total mass was entered. When prompted the shear cell lid was attached to the loading rod and the filled bottom ring placed on the driving axle for the test. The initial bulk density was calculated by the control software from the mass of powder normalized by the volume of the cell. During the shear test, 5 preshear normal stresses, 0.1, 0.2, 0.3, 0.4, and 0.5 kPa were applied to the powder before it was sheared until steady state was achieved. At each preshear normal stress, the powder was sheared to failure at 5 increasing normal stresses between 0 and the preshear normal stress to generate corresponding shear stresses at failure. A yield locus was generated by applying a linear regression to the shear stresses as a function of the normal stress plot. The Major Principal Stress (x-axis) was the maximum value obtained when a Mohr's circle was drawn through the preshear normal stress and tangential to the yield locus. The volume of powder at each steady state was determined from the change in height of the lid and, together with the initial powder mass, used to calculate the powder bulk densities (y-axis).

[2] = Powder flow function analysis (ring shear tester); conditions: FIG. 22; lower flow function curve = good flow
Description: Solid forms prepared according to the procedures described for Routes D, E, and F (Examples 12-14, respectively) were subjected to powder flow function analysis in accordance with the following procedure:
A ring shear tester (RST-XS.s, Dietmar Schulze, Wolfenbüttel, Germany) with RST CONTROL 95 software was used for the flow function analysis. For this analysis, Low-Stress Shear Cell, XS-Lr0, bottom ring was over-filled with small portions of powder using a spatula. The excess powder was removed by gently scraping off the powder with the spatula until the powder was flush with the top of the ring. The bottom ring was weighed and the total mass was entered. When prompted the shear cell lid was attached to the loading rod and the filled bottom ring placed on the driving axle for the test. To obtain a flow function, 5 yield loci were determined using the “Stress Walk” function in the control software. During the shear test, 5 preshear normal stresses, 0.1, 0.2, 0.3, 0.4, and 0.5 kPa were applied to the powder to generate the 5 yield loci. At each preshear normal stress, the powder was sheared to failure at 5 equally-spaced normal stresses between 0 and the preshear normal stress to generate corresponding shear stresses at failure. Each yield locus was derived by applying a linear regression to the shear stresses as a function of the normal stress plot. […]

[3] = Powder time consolidation behavior analysis (ring shear tester); conditions: FIG. 23; 0 hrs vs 12 hrs storage, x=250 Pa
Description: Solid forms prepared according to the procedures described for Routes E and F (Examples 13 and 14, respectively) were subjected to powder time consolidation behavior analysis in accordance with the following procedure.
A ring shear tester (RST-XS.s, Dietmar Schulze, Wolfenbüttel, Germany) with RST CONTROL 95 software was used for the flow function analysis. For this analysis, Low-Stress Shear Cell, XS-Lr0, bottom ring was over-filled with small portions of powder using a spatula. The excess powder was removed by gently scraping off the powder with the spatula until the powder was flush with the top of the ring. The bottom ring was weighed and the total mass was entered. When prompted the shear cell lid was attached to the loading rod and the filled bottom ring placed on the driving axle for the test. For the time consolidation test, a yield locus was first obtained by applying a 0.1 kPa preshear stress and 5 normal stresses equally spaced between 0 and the preshear stress to the powder and determining the corresponding shear stresses. A fresh powder sample was again prepared and conditioned to a similar steady state as that for the just obtained yield locus. […] The change in the shear stress obtained after this new conditioned state was determined and that represents the time consolidation behavior of the powder. […]

[4] = Relative stability of crystalline forms; conditions: comparison among crystalline forms identified

SMILES	Initial Density [1] [g/mL]	Density results (Table 21 and FIG. 21) compared with the product of Route D (E12) [1]	Powder flow (flow function curve: unconfined yield strength vs major principal stress) compared with a product of Route D (E12) [2]	Time consolidation effect (unconfined yield strength gained on storage) [3]	Stability of the crystalline form relative to other forms [4]
Cl.NC(=O)[C@@H]1CC[C@H](c2ccc(OCc3ccccc3F)cc2)N1 [Example E12, (5R)-5-(4-{[(2-Fluorophenyl)methyl]oxy}phenyl)-L-prolinamide Hydrochloride (Anhydrous; Route D)]	0.254	–	–	–	–
Cl.NC(=O)[C@@H]1CC[C@H](c2ccc(OCc3ccccc3F)cc2)N1 [Example E13, (5R)-5-(4-{[(2-Fluorophenyl)methyl]oxy}phenyl)-L-prolinamide Hydrochloride (Anhydrous; Route E)]	0.565	far superior	better	–	–
Cl.NC(=O)[C@@H]1CC[C@H](c2ccc(OCc3ccccc3F)cc2)N1 [Example E14, (5R)-5-(4-{[(2-Fluorophenyl)methyl]oxy}phenyl)-L-prolinamide Hydrochloride (Anhydrous; Route F)]	0.512	far superior	better	does not exhibit as much of a consolidation effect as the product of Route E (E13)	–
Cl.NC(=O)[C@@H]1CC[C@H](c2ccc(OCc3ccccc3F)cc2)N1 [Form 1, (5R)-5-(4-{[(2-Fluorophenyl)methyl]oxy}phenyl)-L-prolinamide Hydrochloride Form 1 (Anhydrous A)]	–	–	–	–	most stable crystalline form identified to date
Cl.NC(=O)[C@@H]1CC[C@H](c2ccc(OCc3ccccc3F)cc2)N1 [Form 9, (5R)-5-(4-{[(2-Fluorophenyl)methyl]oxy}phenyl)-L-prolinamide Hydrochloride Form 9 (Anhydrous B)]	–	–	–	–	less stable than Anhydrous Form A (Form 1)
Cl.NC(=O)[C@@H]1CC[C@H](c2ccc(OCc3ccccc3F)cc2)N1 [Form 10, (5R)-5-(4-{[(2-Fluorophenyl)methyl]oxy}phenyl)-L-prolinamide Hydrochloride Form 10 (Anhydrous C)]	–	–	–	–	less stable than Anhydrous Form A (Form 1)
